Measured values as given in US9394305B2, “Substituted imidazo[1,2-a]pyridine compounds as tropomyosin receptor kinase a (TrkA) inhibitors” (Dr. Reddy's Laboratories Ltd., priority 2014, dated 2016).
pIC50: −log10 of the molar value.

target: T1, TrkA kinase (Homo sapiens, UniProt P04629); test: In vitro TrkA inhibitory activity using TR-FRET assay; assay type: biochemical; conditions: 5 ng TrkA, 500 μM ATP, values given as bins, read-out: TrkA inhibition in-vitro IC50
T1 construct: purchased Upstate, USA
Summary of the method: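 TrkA kinase (5 ng) was preincubated 30 min at 20-35° C. with compound (1% DMSO final), then 40 nM ULight poly GT and 500 μM ATP were added for 30 min before an EDTA stop. Phosphorylation was detected by Eu anti-phosphotyrosine TR-FRET (ex 340, em 615/665 nm), and IC50 came from sigmoidal fits of 1/3 serial dilutions.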

T1 sequence (P04629 33-796): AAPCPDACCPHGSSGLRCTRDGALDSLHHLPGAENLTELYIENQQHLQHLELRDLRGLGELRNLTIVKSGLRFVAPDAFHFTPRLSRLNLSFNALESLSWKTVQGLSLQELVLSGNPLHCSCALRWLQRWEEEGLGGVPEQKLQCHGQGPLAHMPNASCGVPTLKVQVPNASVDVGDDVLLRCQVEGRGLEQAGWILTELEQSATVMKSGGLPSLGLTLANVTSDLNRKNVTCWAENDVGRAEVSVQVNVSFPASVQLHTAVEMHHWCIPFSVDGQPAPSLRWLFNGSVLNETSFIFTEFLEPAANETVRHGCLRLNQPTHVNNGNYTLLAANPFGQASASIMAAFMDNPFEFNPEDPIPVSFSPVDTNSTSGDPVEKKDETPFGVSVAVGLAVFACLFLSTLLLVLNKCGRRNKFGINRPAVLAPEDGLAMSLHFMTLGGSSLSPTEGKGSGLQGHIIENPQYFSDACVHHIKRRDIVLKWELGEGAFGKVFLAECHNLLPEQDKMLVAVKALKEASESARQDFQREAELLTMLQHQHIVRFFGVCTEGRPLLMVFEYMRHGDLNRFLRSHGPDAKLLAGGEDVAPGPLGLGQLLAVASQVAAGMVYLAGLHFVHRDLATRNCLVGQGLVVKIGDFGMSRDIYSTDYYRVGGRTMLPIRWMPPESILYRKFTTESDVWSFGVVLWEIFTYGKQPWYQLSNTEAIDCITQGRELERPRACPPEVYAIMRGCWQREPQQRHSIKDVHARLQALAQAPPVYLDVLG

Row | Structure (SMILES) | pIC50
1 | CN(c1ccn(C)n1)S(=O)(=O)NC(=O)c1cnc2ccc(N3CCC[C@@H]3c3cc(F)ccc3OC3CCOCC3)cn12 [Example 91, (R)-6-(2-(5-fluoro-2-((tetrahydro-2H-pyran-4-yl)oxy)phenyl)pyrrolidin-1-yl)-N—(N-methyl-N-(1-methyl-1H-pyrazol-3-yl)sulfamoyl)imidazo[1,2-a]pyridine-3-carboxamide] | 7.00 to 7.30
2 | CN(c1ccn(C)n1)S(=O)(=O)NC(=O)c1cnc2ccc(N3C[C@@H](F)C[C@@H]3c3cc(F)ccc3O[C@@H]3CCOC3)cn12 [Example 92, 6-((2R,4S)-4-fluoro-2-(5-fluoro-2-(((R)-tetrahydrofuran-3-yl)oxy)phenyl)pyrrolidin-1-yl)-N—(N-methyl-N-(1-methyl-1H-pyrazol-3-yl)sulfamoyl)imidazo[1,2-a]pyridine-3-carboxamide] | ≥ 7.30
3 | Cc1nnc(N(C)S(=O)(=O)NC(=O)c2cnc3ccc(N4C[C@@H](F)C[C@@H]4c4cc(F)ccc4O[C@@H]4CCOC4)cn23)s1 [Example 93, 6-((2R,4S)-4-fluoro-2-(5-fluoro-2-(((R)-tetrahydrofuran-3-yl)oxy)phenyl)pyrrolidin-1-yl)-N—(N-methyl-N-(5-methyl-1,3,4-thiadiazol-2-yl)sulfamoyl)imidazo[1,2-a]pyridine-3-carboxamide] | ≥ 7.30
4 | CC(C)(C)S(=O)(=O)NC(=O)c1cnc2ccc(N3C[C@@H](F)C[C@@H]3c3cc(F)ccc3OC3CCOCC3)cn12 [Example 94, N-(tert-butylsulfonyl)-6-((2R,4S)-4-fluoro-2-(5-fluoro-2-((tetrahydro-2H-pyran-4-yl)oxy)phenyl)pyrrolidin-1-yl)imidazo[1,2-a]pyridine-3-carboxamide] | 7.00 to 7.30
5 | CCN(CC)S(=O)(=O)NC(=O)c1cnc2ccc(N3C[C@@H](F)C[C@@H]3c3cc(F)ccc3OC3CCOCC3)cn12 [Example 95, N—(N,N-diethylsulfamoyl)-6-((2R,4S)-4-fluoro-2-(5-fluoro-2-((tetrahydro-2H-pyran-4-yl)oxy)phenyl)pyrrolidin-1-yl)imidazo[1,2-a]pyridine-3-carboxamide] | ≥ 7.30
6 | CN(c1ccn(C)n1)S(=O)(=O)NC(=O)c1cnc2ccc(N3C[C@@H](F)C[C@@H]3c3cc(F)ccc3OC3CCOCC3)cn12 [Example 96, 6-((2R,4S)-4-fluoro-2-(5-fluoro-2-((tetrahydro-2H-pyran-4-yl)oxy)phenyl)pyrrolidin-1-yl)-N—(N-methyl-N-(1-methyl-1H-pyrazol-3-yl)sulfamoyl)imidazo[1,2-a]pyridine-3-carboxamide] | ≥ 7.30
7 | CN(c1nncs1)S(=O)(=O)NC(=O)c1cnc2ccc(N3C[C@@H](F)C[C@@H]3c3cc(F)ccc3OC3CCOCC3)cn12 [Example 97, 6-((2R,4S)-4-fluoro-2-(5-fluoro-2-((tetrahydro-2H-pyran-4-yl)oxy)phenyl)pyrrolidin-1-yl)-N—(N-methyl-N-(1,3,4-thiadiazol-2-yl)sulfamoyl)imidazo[1,2-a]pyridine-3-carboxamide] | ≥ 7.30
8 | Cc1nnc(N(C)S(=O)(=O)NC(=O)c2cnc3ccc(N4C[C@@H](F)C[C@@H]4c4cc(F)ccc4OC4CCOCC4)cn23)s1 [Example 98, 6-((2R,4S)-4-fluoro-2-(5-fluoro-2-((tetrahydro-2H-pyran-4-yl)oxy)phenyl)pyrrolidin-1-yl)-N—(N-methyl-N-(5-methyl-1,3,4-thiadiazol-2-yl)sulfamoyl)imidazo[1,2-a]pyridine-3-carboxamide] | 7.00 to 7.30
9 | CN(CCF)S(=O)(=O)NC(=O)c1cnc2ccc(N3C[C@@H](F)C[C@@H]3c3cc(F)ccc3OC3CCOCC3)cn12 [Example 99, 6-((2R,4S)-4-fluoro-2-(5-fluoro-2-((tetrahydro-2H-pyran-4-yl)oxy)phenyl)pyrrolidin-1-yl)-N—(N-(2-fluoroethyl)-N-methylsulfamoyl)imidazo[1,2-a]pyridine-3-carboxamide] | ≥ 7.30
10 | CN(c1nccs1)S(=O)(=O)NC(=O)c1cnc2ccc(N3C[C@@H](F)C[C@@H]3c3cc(F)ccc3OC3CCOCC3)cn12 [Example 100, 6-((2R,4S)-4-fluoro-2-(5-fluoro-2-((tetrahydro-2H-pyran-4-yl)oxy)phenyl)pyrrolidin-1-yl)-N—(N-methyl-N-(thiazol-2-yl)sulfamoyl)imidazo[1,2-a]pyridine-3-carboxamide] | ≥ 7.30
11 | CCCN(C)S(=O)(=O)NC(=O)c1cnc2ccc(N3C[C@@H](F)C[C@@H]3c3cc(F)ccc3O[C@@H]3CCOC3)cn12 [Example 101, 6-((2R,4S)-4-fluoro-2-(5-fluoro-2-(((R)-tetrahydrofuran-3-yl)oxy)phenyl)pyrrolidin-1-yl)-N—(N-methyl-N-propylsulfamoyl)imidazo[1,2-a]pyridine-3-carboxamide] | ≥ 7.30
12 | CCN(CCF)S(=O)(=O)NC(=O)c1cnc2ccc(N3C[C@@H](F)C[C@@H]3c3cc(F)ccc3OC3CCOCC3)cn12 [Example 102, N—(N-ethyl-N-(2-fluoroethyl)sulfamoyl)-6-((2R,4S)-4-fluoro-2-(5-fluoro-2-((tetrahydro-2H-pyran-4-yl)oxy)phenyl)pyrrolidin-1-yl)imidazo[1,2-a]pyridine-3-carboxamide] | ≥ 7.30
13 | CN(c1ccccn1)S(=O)(=O)NC(=O)c1cnc2ccc(N3C[C@@H](F)C[C@@H]3c3cc(F)ccc3O[C@@H]3CCOC3)cn12 [Example 103, 6-((2R,4S)-4-fluoro-2-(5-fluoro-2-(((R)-tetrahydrofuran-3-yl)oxy)phenyl)pyrrolidin-1-yl)-N—(N-methyl-N-(pyridin-2-yl)sulfamoyl)imidazo[1,2-a]pyridine-3-carboxamide] | ≥ 7.30
14 | CN(c1ccccn1)S(=O)(=O)NC(=O)c1cnc2ccc(N3C[C@@H](F)C[C@@H]3c3cc(F)ccc3OC3CCOCC3)cn12 [Example 104, 6-((2R,4S)-4-fluoro-2-(5-fluoro-2-((tetrahydro-2H-pyran-4-yl)oxy)phenyl)pyrrolidin-1-yl)-N—(N-methyl-N-(pyridin-2-yl)sulfamoyl)imidazo[1,2-a]pyridine-3-carboxamide] | ≥ 7.30
15 | COCCN(C)S(=O)(=O)NC(=O)c1cnc2ccc(N3CCC[C@@H]3c3cc(F)ccc3O[C@@H]3CCOC3)cn12 [Example 105, 6-((R)-2-(5-fluoro-2-(((R)-tetrahydrofuran-3-yl)oxy)phenyl)pyrrolidin-1-yl)-N—(N-(2-methoxyethyl)-N-methylsulfamoyl)imidazo[1,2-a]pyridine-3-carboxamide] | ≥ 7.30
16 | CN(C)S(=O)(=O)NC(=O)c1cnc2ccc(N3CCC[C@@H]3c3cc(F)ccc3O[C@@H]3CCOC3)cn12 [Example 106, N—(N,N-dimethylsulfamoyl)-6-((R)-2-(5-fluoro-2-(((R)-tetrahydrofuran-3-yl)oxy)phenyl)pyrrolidin-1-yl)imidazo[1,2-a]pyridine-3-carboxamide] | ≥ 7.30
17 | CCCN(C)S(=O)(=O)NC(=O)c1cnc2ccc(N3CCC[C@@H]3c3cc(F)ccc3O[C@@H]3CCOC3)cn12 [Example 107, 6-((R)-2-(5-fluoro-2-(((R)-tetrahydrofuran-3-yl)oxy)phenyl)pyrrolidin-1-yl)-N—(N-methyl-N-propylsulfamoyl)imidazo[1,2-a]pyridine-3-carboxamide] | ≥ 7.30
18 | CN(C1CC1)S(=O)(=O)NC(=O)c1cnc2ccc(N3C[C@@H](F)C[C@@H]3c3cc(F)ccc3OC3CCOCC3)cn12 [Example 108, N—(N-cyclopropyl-N-methylsulfamoyl)-6-((2R,4S)-4-fluoro-2-(5-fluoro-2-((tetrahydro-2H-pyran-4-yl)oxy)phenyl)pyrrolidin-1-yl)imidazo[1,2-a]pyridine-3-carboxamide] | ≥ 7.30
19 | CN(CC(C)(C)F)S(=O)(=O)NC(=O)c1cnc2ccc(N3C[C@@H](F)C[C@@H]3c3cc(F)ccc3OC3CCOCC3)cn12 [Example 110, 6-((2R,4S)-4-fluoro-2-(5-fluoro-2-((tetrahydro-2H-pyran-4-yl)oxy)phenyl)pyrrolidin-1-yl)-N—(N-(2-fluoro-2-methylpropyl)-N-methylsulfamoyl)imidazo[1,2-a]pyridine-3-carboxamide] | ≥ 7.30
